Laboratory results taken from patent publication US10065990B2, “Cyclic peptide compound, and preparation method, pharmaceutical composition and use thereof” (HANGZHOU GUANYU BIO-MEDICAL CO., LTD, priority 2013, dated 2018).
Like-named read-outs stand apart in the source and are kept apart here.

Tests used:
HDAC7 = biological target: T1, HDAC7 (Homo sapiens, UniProt Q8WUI4); assay: HDAC biochemical activity measurement (fluorescent substrate deacetylation);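 also: fluorogenic deacetylation assay using acetyl-lysine substrate at 20 µM, enzyme and compound incubated 30 min at 37 °C, then developer added, fluorescence read at 360/460 nm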; conditions: HDAC7; 37° C. 30 minutes
T1 sequence (Q8WUI4 1-952): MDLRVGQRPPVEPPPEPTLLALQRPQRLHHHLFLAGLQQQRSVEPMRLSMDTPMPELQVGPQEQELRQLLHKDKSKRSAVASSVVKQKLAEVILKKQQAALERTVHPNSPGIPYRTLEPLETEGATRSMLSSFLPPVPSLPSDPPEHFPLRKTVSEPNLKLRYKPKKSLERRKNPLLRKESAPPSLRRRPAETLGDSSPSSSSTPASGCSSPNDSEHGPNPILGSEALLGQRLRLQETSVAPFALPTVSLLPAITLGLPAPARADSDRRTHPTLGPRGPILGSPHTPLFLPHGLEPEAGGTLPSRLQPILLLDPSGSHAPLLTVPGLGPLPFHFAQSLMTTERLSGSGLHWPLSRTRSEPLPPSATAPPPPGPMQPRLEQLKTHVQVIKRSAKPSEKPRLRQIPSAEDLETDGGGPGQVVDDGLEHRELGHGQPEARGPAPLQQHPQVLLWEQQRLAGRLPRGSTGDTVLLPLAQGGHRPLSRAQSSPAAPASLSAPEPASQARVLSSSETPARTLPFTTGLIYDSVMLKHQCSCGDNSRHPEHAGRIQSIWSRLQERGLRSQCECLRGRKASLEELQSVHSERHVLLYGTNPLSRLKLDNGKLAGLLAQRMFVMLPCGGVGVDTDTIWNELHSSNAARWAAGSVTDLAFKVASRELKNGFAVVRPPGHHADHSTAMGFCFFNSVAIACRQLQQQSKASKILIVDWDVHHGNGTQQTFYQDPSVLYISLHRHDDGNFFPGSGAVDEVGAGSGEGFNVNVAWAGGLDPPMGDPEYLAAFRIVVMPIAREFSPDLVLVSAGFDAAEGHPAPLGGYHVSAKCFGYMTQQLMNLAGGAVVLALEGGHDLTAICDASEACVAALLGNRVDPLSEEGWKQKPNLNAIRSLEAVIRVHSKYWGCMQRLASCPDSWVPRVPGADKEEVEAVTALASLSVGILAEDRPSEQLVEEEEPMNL

[1] = tested on: Hela (human cervical cancer cells); assay: MTT cancer cell growth inhibition; format: cell-based; conditions: Homo sapiens, HeLa, 72 h, MTT, 72 hours incubation, read-out: GI50 Hela
Excerpt: (§1) MTT assay principle is yellow MTT can penetrate membrane into the cell, succinic dehydrogenase of the mitochondria in living cells can make exogenous MTT reduction of insoluble in water of blue-violet acicular formazan for crystallization and deposition in the cell, crystallization can be dissolved dimethyl sulfoxide (DMSO) solution, detected its absorbance at 490 nm/570 nm wavelength by enzyme-linked immunosorbent assay, which can reflect the number of cells.
(§2) Using DMEM+10% FBS culture medium or using 1640+10% FBS culture, respectively.
(§3) a) Cells were seeded in 96-well plates with the inoculation of 1500/well, 190 μl/hole, 37° C., 5% of CO2 incubator overnight;
(§4) b) The next day each well was added 10 μl of different drugs. The final concentration of drug was 10^−5˜10^−10M, three parallel holes; 37° C., 5% CO2 culture incubator for 72 hours incubation;
(§5) c) Per well was added 20 μl 5 mg/ml of MTT, 37° C., 5% CO2 culture incubator for 4 hours incubation;
(§6) d) The supernatant was discarded. Each well was added 100 μl of DMSO and oscillation;
(§7) e) 570 nm readings. Calculate cell viability. GI50 calculation based on the results.

[2] = tested on: U937 (human leukemia cells); assay: MTT cancer cell growth inhibition; format: cell-based; conditions: Homo sapiens, U-937, 72 h, MTT, 72 hours incubation, read-out: GI50 U93
Excerpt: as §1, §2, §3, §4, §5, §6, §7

[3] = tested on: SGC-7901 (human gastric cancer cells); assay: MTT cancer cell growth inhibition; format: cell-based; conditions: Homo sapiens, SGC-7901, 72 h, MTT, 72 hours incubation, SGC-7901 cells; read-out: GI50 SGC-7901
Excerpt: as §1, §2, §3, §4, §5, §6, §7

[4] = tested on: HCC827 (human non-small cell lung cancer cells); assay: MTT cancer cell growth inhibition; format: cell-based; conditions: Homo sapiens, HCC827, 72 h, MTT, 72 hours incubation, HCC827 cells; read-out: GI50 HCC827
Excerpt: as §1, §2, §3, §4, §5, §6, §7

[5] = tested on: KBM-5 (human chronic myelogenous leukemia); assay: MTT cancer cell growth inhibition; format: cell-based; conditions: Homo sapiens, KBM5, 72 h, MTT, 72 hours incubation, KBM-5 cells; read-out: GI50 KBM-5
Excerpt: as §1, §2, §3, §4, §5, §6, §7

[6] = tested on: A549 (human lung cancer cells); assay: MTT cancer cell growth inhibition; format: cell-based; conditions: Homo sapiens, A549, 72 h, MTT, 72 hours incubation, read-out: GI50 A54
Excerpt: as §1, §2, §3, §4, §5, §6, §7

[7] = tested on: K562 (human leukemia cells); assay: MTT cancer cell growth inhibition; format: cell-based; conditions: Homo sapiens, K562, 72 h, MTT, 72 hours incubation, K562 cells; read-out: GI50 K562
Excerpt: as §1, §2, §3, §4, §5, §6, §7

[8] = tested on: KBM5-T315I (human chronic myelogenous leukemia); assay: MTT cancer cell growth inhibition; format: cell-based; conditions: Homo sapiens, 72 h, MTT, 72 hours incubation, KBM5-T315I cells; read-out: GI50 KBM5-T315I
Excerpt: as §1, §2, §3, §4, §5, §6, §7

[9] = tested on: lncap (prostate cancer cells); assay: MTT cancer cell growth inhibition; format: cell-based; conditions: Homo sapiens, LNCaP, 72 h, MTT, 72 hours incubation, read-out: GI50 lnca
Excerpt: as §1, §2, §3, §4, §5, §6, §7

[10] = tested on: Huh-7 (human hepatoma cells); assay: MTT cancer cell growth inhibition; format: cell-based; conditions: Homo sapiens, Huh-7, 72 h, MTT, 72 hours incubation, Huh-7 cells; read-out: GI50 Huh-7
Excerpt: as §1, §2, §3, §4, §5, §6, §7

[11] = tested on: PANC-1 (Pac-1, human pancreatic cancer cells); assay: MTT cancer cell growth inhibition; format: cell-based; conditions: Homo sapiens, PANC-1, 72 h, MTT, 72 hours incubation, read-out: GI50 PAN
Excerpt: as §1, §2, §3, §4, §5, §6, §7

[12] = tested on: HT1080 (human fibrosarcoma cells); assay: MTT cancer cell growth inhibition; format: cell-based; conditions: Homo sapiens, HT-1080, 72 h, MTT, 72 hours incubation, read-out: GI50 HT1
Excerpt: as §1, §2, §3, §4, §5, §6, §7

[13] = tested on: MDA-MB-231 (breast cancer cells); assay: MTT cancer cell growth inhibition; format: cell-based; conditions: Homo sapiens, MDA-MB-231, 72 h, read-out: GI50 MDA-MB-231, MTT, 72 hours incubation, MDA-MB-231 cells
Excerpt: as §1, §2, §3, §4, §5, §6, §7

[14] = tested on: Bel-7402 (human hepatoma cells); assay: MTT cancer cell growth inhibition; format: cell-based; conditions: Homo sapiens, Bel-7402, 72 h, MTT, 72 hours incubation, Bel-7402 cells; read-out: GI50 Bel-7402
Excerpt: as §1, §2, §3, §4, §5, §6, §7

[15] = tested on: BGC-823 (human gastric cancer cells); assay: MTT cancer cell growth inhibition; format: cell-based; conditions: Homo sapiens, BGC-823, 72 h, MTT, 72 hours incubation, read-out: GI50 BG
Excerpt: as §1, §2, §3, §4, §5, §6, §7

[16] = tested on: DU145 (human prostate cancer cells); assay: MTT cancer cell growth inhibition; format: cell-based; conditions: Homo sapiens, DU-145, 72 h, MTT, 72 hours incubation, read-out: GI50 Du1
Excerpt: as §1, §2, §3, §4, §5, §6, §7

[17] = tested on: N-87 (human gastric cancer cells); assay: MTT cancer cell growth inhibition; format: cell-based; conditions: Homo sapiens, 72 h, MTT, 72 hours incubation, N-87 cells; read-out: GI50 N-87
Excerpt: as §1, §2, §3, §4, §5, §6, §7

[18] = tested on: MOLT-4 (human acute lymphoblastic leukemia cells); assay: MTT cancer cell growth inhibition; format: cell-based; conditions: Homo sapiens, MOLT-4, 72 h, MTT, 72 hours incubation, read-out: GI50 Mol
Excerpt: as §1, §2, §3, §4, §5, §6, §7

[19] = tested on: MCF-7 (human breast cancer cells); assay: MTT cancer cell growth inhibition; format: cell-based; conditions: Homo sapiens, MCF7, 72 h, 72 hours incubation, read-out: GI50 MCF
Excerpt: as §1, §2, §3, §4, §5, §6, §7

[20] = tested on: H1975 (non-small cell lung adenocarcinoma); assay: MTT cancer cell growth inhibition; format: cell-based; conditions: Homo sapiens, NCI-H1975, 72 h, MTT, 72 hours incubation, H1975 cells; read-out: GI50 H1975
Excerpt: as §1, §2, §3, §4, §5, §6, §7

IC50 HDAC7 (HDAC7)	GI50 [3]	GI50 [4]	GI50 [5]	GI50 [7]	GI50 [8]	GI50 [10]	GI50 [13]	GI50 [14]	GI50 [17]	GI50 [20]	GI50 ([1]; Hela cells)	GI50 ([2]; U937 cells)	GI50 ([6]; A549 cells)	GI50 ([9]; lncap cells)	GI50 ([11]; PANC-1 cells)	GI50 ([12]; HT1080 cells)	GI50 ([15]; BGC-823 cells)	GI50 ([16]; DU145 cells)	GI50 ([18]; MOLT-4 cells)	SMILES	further results
no activity	0.077 µM	0.057 µM	0.092 µM	0.027 µM	0.063 µM	0.019 µM	0.019 µM	0.057 µM	0.052 µM	0.042 µM	–	–	–	–	–	–	–	–	–	C/C=C1\NC(=O)c2cc(F)cc(n2)CNC(=O)C[C@@H](/C=C/CCSC(=O)CCCCCCC)OC(=O)[C@H](C(C)C)NC1=O [Example 31]	GI50 [1]: 0.09 µM; GI50 [2]: 0.04 µM; GI50 [6]: 0.07 µM; GI50 [9]: 0.01 µM; GI50 [11]: 0.05 µM; GI50 [12]: 0.05 µM; GI50 [15]: 0.05 µM; GI50 [16]: 0.02 µM; GI50 [18]: 0.01 µM; GI50 [19]: 0.06 µM
no activity	0.038 µM	0.075 µM	0.021 µM	0.045 µM	0.041 µM	0.085 µM	0.011 µM	0.043 µM	0.042 µM	0.023 µM	0.04 µM	0.06 µM	0.06 µM	0.06 µM	0.06 µM	0.02 µM	0.06 µM	0.05 µM	0.03 µM	C/C=C1\NC(=O)c2cc(SC)cc(n2)CNC(=O)C[C@@H](/C=C/CCSC(C)=O)OC(=O)[C@H](Cc2ccccc2)NC1=O [Compound 187]	GI50 ([19]; MCF-7 cells): 0.02 µM
no activity	0.058 µM	0.045 µM	0.028 µM	0.107 µM	0.034 µM	0.026 µM	0.046 µM	0.026 µM	0.039 µM	0.059 µM	0.03 µM	0.05 µM	0.02 µM	0.08 µM	0.07 µM	0.04 µM	0.08 µM	0.06 µM	0.04 µM	C/C=C1\NC(=O)c2ccc(SC)c(n2)CNC(=O)C[C@@H](/C=C/CCSC(C)=O)OC(=O)[C@H](Cc2cccc3ccccc23)NC1=O [Compound 200]	GI50 ([19]; MCF-7 cells): 0.03 µM
